Assay results published in ChEMBL document CHEMBL3351562, “Oxo- and thiooxo-imidazo[1,5-c]pyrimidine molecule library: beyond their interest in inhibition of Brucella suis histidinol dehydrogenase, a powerful protection tool in the synthesis of histidine analogues” (Bioorg Med Chem Lett, 2014).

experiment: Inhibition of Brucella suis histidinol dehydrogenase assessed as NADH released as a by-product preincubated for 5 min at 30 degC by spectrophotometric method

Row | Compound | IC50
1 | N[C@@H](Cc1c[nH]cn1)C(=O)Cc1ccc(F)cc1F | 0.01 µM
2 | Cc1ccc(CC(=O)[C@@H](N)Cc2c[nH]cn2)cc1 | 0.015 µM
3 | N[C@@H](Cc1c[nH]cn1)C(=O)Cc1ccc(Br)cc1 | 0.006 µM
4 | N[C@@H](Cc1c[nH]cn1)C(=O)Cc1ccc(-c2ccccc2)cc1 | 0.012 µM
5 | N[C@@H](Cc1c[nH]cn1)C(=O)Cc1ccc(Cl)cc1 | 0.012 µM
6 | COC(=O)[C@@H]1Cc2cncn2C(=O)N1 | 532 µM
7 | O=C(Cc1ccc(Br)cc1)[C@@H]1Cc2cncn2C(=O)N1 | 98 µM
8 | O=C(Cc1ccc(Cl)cc1)[C@@H]1Cc2cncn2C(=O)N1 | 92 µM
9 | Cc1ccc(CC(=O)[C@@H]2Cc3cncn3C(=O)N2)cc1 | 113 µM
10 | O=C(Cc1ccc(F)cc1F)[C@@H]1Cc2cncn2C(=O)N1 | 143 µM
11 | O=C(Cc1ccc(-c2ccccc2)cc1)[C@@H]1Cc2cncn2C(=O)N1 | 86 µM
12 | CCCCCc1ccc(C#Cc2ccc(CC(=O)[C@@H]3Cc4cncn4C(=O)N3)cc2)cc1 | 175 µM
13 | COC(=O)[C@@H]1Cc2cncn2C(=S)N1 | 18 µM
14 | O=C(Cc1ccc(Br)cc1)[C@@H]1Cc2cncn2C(=S)N1 | 105 µM
15 | O=C(Cc1ccc(Cl)cc1)[C@@H]1Cc2cncn2C(=S)N1 | 74 µM
16 | Cc1ccc(CC(=O)[C@@H]2Cc3cncn3C(=S)N2)cc1 | 95 µM
17 | O=C(Cc1ccc(F)cc1F)[C@@H]1Cc2cncn2C(=S)N1 | 95 µM
18 | O=C(Cc1ccc(-c2ccccc2)cc1)[C@@H]1Cc2cncn2C(=S)N1 | 5 µM
19 | CCCCCc1ccc(C#Cc2ccc(CC(=O)[C@@H]3Cc4cncn4C(=S)N3)cc2)cc1 | 322 µM
20 | CCCCCc1ccc(C#Cc2ccc(CC(=O)[C@@H](N)Cc3c[nH]cn3)cc2)cc1 | 0.009 µM
